According to patent publication US12156862B2, “Medicaments for the treatment of vasoconstriction related diseases or disorders” (Sulfateq B.V., priority 2017, dated 2024):

Experiments:
α1 adrenoceptor = assay: Phenylephrine-induced constriction of isolated porcine intrarenal arteries (myography)
Method: Porcine kidneys were obtained from a local slaughterhouse (Kroon Vlees, Gotenburgweg 30, 9723 TM Groningen. The Netherlands) and transported on ice in normal physiological Krebs buffer containing 120 mM NaCl, 6 mM KCl, 2.5 mM CaCl2×2H2O, 1.2 mM MgCl2×6H2O, 1.2 mM NaH2PO4×H2O, 25 mM NaHCO3 and 11.4 mM D-(+)-Glucose monohydrate (all ingredients were purchased from Merck) in ultrapure water.
The renal artery tree was dissected from the kidney, cleaned of surrounding connective tissue and cut into equally-sized ring segments (2 mm in length). In some rings, endothelium denudation was performed by gentle rubbing of the intimal surface with a paper clip. Rings were mounted in organ baths as described previously (Buikema et al., 2000). Arterial rings were washed thoroughly by replacing Krebs buffer and allowed to equilibrate for a period of 60 min under 1.4 g of resting tension before they were assessed for viability by inducing 2 subsequent constrictions with KCl (60 mM). […] After washout and stabilization, rings were treated for 30 minutes by incubation with vehicle (0.1% DMSO), SUL-121, SUL-150 or SUL-151, followed by subsequent incubation with cumulative doses of phenylephrine.
Dose-dependent constriction responses to phenylephrine (10^−8M-10^−4M) were recorded in said isolated porcine intrarenal arteries. Buffer was warmed to 37° C. and aerated with 95% O2 and 5% CO2 before use.
Vascular constriction responses are expressed as percentage of final response to KCl. Data are expressed as mean±SEM. *p<0.05.
To explore the effects of the enantiomers of (6-hydroxy-2,5,7,8-tetramethylchroman-2-yl)(piperazin-1-yl)methanone (SUL-150 and SUL-151) on constriction of isolated porcine intrarenal arteries, cumulative dose response curves to the α1 adrenoceptor agonist phenylephrine (PE) were constructed in the presence and absence of SUL-150 and SUL-151.

[1] = molecular target: T1, human α1 adrenoceptor subtype D (Homo sapiens, UniProt P25100); assay: Phenylephrine-induced intracellular calcium (FLIPR Calcium 6) in CHO cells, α1D; format: cell-based; details: in words
T1 construct: expressed in transfected cells; host or cells: CHO-K1
T1 sequence (P25100 1-572): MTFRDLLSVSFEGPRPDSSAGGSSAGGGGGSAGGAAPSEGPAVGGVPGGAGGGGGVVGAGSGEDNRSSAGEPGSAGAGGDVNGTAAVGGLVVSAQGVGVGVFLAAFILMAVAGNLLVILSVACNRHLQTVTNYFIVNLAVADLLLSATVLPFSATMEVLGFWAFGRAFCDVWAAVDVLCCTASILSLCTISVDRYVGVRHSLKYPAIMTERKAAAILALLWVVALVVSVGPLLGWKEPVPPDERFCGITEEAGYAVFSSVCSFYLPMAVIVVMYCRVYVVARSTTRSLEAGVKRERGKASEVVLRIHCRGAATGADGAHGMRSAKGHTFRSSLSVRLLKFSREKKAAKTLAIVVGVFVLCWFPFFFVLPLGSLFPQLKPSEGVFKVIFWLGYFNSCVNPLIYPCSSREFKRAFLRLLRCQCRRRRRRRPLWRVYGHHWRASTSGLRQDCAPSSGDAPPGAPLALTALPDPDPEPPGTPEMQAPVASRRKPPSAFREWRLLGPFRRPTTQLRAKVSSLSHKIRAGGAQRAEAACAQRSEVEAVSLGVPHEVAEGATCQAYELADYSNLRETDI
Method: (§1) CHO-K1 cells were stably transfected with a plasmid containing human al-AR subtypes A, B and D in separate cell lines in DMEM-F12 medium with 10% FBS, 1% penicillin-streptomycin and 200 μg/mL Geneticin (G418, Invitrogen, Carlsbad, CA).
(§2) On the next day, CHO cells were treated with either vehicle (0.1% DMSO) or SUL-121 enantiomers for 30 min at 37° C. and stimulated with a 3-fold dilution series of PE (20 μM-100 pM). [Ca^2], was measured using the fluorescent FLIPR Calcium 6 assay kit (Molecular Devices) in immortalized CHO cells stably expressing the α1 adrenoceptor.
(§3) Initially, calcium responses induced by non-cumulative concentration series of phenylephrine were investigated using fluorescent measurements in α1A adrenoceptor-overexpressing CHO cells treated with SUL-150 and SUL-151 (FIG. 4). Fluorescent measurement data was processed and analyzed in SoftMax Pro 7 and expressed as % of baseline AUC with a 3-fold multiplier using an average of first 10 measurement points as baseline.

[2] = molecular target: T2, human α1 adrenoceptor subtype A (Homo sapiens, UniProt P35348); assay: Phenylephrine-induced intracellular calcium (FLIPR Calcium 6) in CHO cells, α1A; format: cell-based
T2 construct: expressed in transfected cells; host or cells: CHO-K1
T2 sequence (P35348 1-466): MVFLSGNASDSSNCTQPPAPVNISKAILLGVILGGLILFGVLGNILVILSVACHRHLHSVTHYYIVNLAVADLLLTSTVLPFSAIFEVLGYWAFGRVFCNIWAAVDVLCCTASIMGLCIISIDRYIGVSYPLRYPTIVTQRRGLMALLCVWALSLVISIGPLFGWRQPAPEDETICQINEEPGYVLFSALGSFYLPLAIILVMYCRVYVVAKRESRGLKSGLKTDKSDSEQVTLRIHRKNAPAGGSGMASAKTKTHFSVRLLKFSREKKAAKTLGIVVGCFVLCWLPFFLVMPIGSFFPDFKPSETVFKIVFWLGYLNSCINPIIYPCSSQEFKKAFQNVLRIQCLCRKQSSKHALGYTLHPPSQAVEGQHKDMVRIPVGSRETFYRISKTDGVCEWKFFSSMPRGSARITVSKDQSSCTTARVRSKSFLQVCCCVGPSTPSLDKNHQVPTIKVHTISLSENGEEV
Method: as §1, §2, §3

[3] = molecular target: T3, human α1 adrenoceptor subtype B (Homo sapiens, UniProt P35368); assay: Phenylephrine-induced intracellular calcium (FLIPR Calcium 6) in CHO cells, α1B; format: cell-based; details: in words
T3 construct: expressed in transfected cells; host or cells: CHO-K1
T3 sequence (P35368 1-520): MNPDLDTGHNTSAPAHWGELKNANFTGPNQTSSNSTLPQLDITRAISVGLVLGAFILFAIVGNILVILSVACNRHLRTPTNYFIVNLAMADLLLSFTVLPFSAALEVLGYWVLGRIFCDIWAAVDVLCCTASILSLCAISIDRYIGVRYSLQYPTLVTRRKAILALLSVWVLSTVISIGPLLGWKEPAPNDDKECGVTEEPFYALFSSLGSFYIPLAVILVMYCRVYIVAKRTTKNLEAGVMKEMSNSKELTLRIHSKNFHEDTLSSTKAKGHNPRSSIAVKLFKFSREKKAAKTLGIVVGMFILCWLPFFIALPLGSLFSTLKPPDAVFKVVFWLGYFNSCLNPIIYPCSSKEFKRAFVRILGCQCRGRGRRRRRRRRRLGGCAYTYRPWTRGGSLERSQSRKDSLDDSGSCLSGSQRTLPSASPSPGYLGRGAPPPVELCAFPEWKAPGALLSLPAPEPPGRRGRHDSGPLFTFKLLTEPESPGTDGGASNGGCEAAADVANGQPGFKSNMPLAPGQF
Method: as §1, §2, §3

α1A adrenoceptor = molecular target: T4, α1A adrenoceptor (Homo sapiens, UniProt P35348); assay: Radiolabeled prazosin displacement binding assay in α1A adrenoceptor transgenic CHO cells
T4 construct: expressed in transfected cells; host or cells: CHO-K1
T4 sequence (P35348 1-466): T2 sequence (P35348 1-466)
From the text: We therefore explored whether SUL-150 could directly interact with the α1 adrenoceptor as a receptor antagonist.

- effect on PE-induced calcium transients, α1 adrenoceptor subtype D [1]: did not affect calcium transients
- logEC50 of phenylephrine-induced calcium influx, α1A ([2]; 10 μM test compound): −8.09 ± 0.10
- logEC50 of phenylephrine-induced calcium influx, α1A ([2]; 30 μM test compound): −8.09 ± 0.11
- logEC50 of phenylephrine-induced calcium influx, α1A ([2]; 100 μM test compound): −7.98 ± 0.10
- effect on PE-induced calcium transients, α1 adrenoceptor subtype A ([2]; in words): did not affect calcium transients
- effect on PE-induced calcium transients, α1 adrenoceptor subtype B [3]: did not affect calcium transients
- concentrations at which [7-Methoxy-3H]-prazosin is displaced (α1A adrenoceptor): higher than 10 μM
SMILES: Cc1c(C)c2c(c(C)c1O)CCC(C)(C(=O)N1CCNCC1)O2 (stereo not shown) [SUL-151, (6-hydroxy-2,5,7,8-tetramethylchroman-2-yl)(piperazin-1-yl)methanone]
- logEC50 of phenylephrine-induced constriction responses (α1 adrenoceptor; 10 μM test compound): −5.82 ± 0.05^
- logEC50 of phenylephrine-induced constriction responses (α1 adrenoceptor; 30 μM test compound): −5.89 ± 0.04
- logEC50 of phenylephrine-induced constriction responses (α1 adrenoceptor; 100 μM test compound): −5.77 ± 0.04^
